Assay results published in PMC6704710, “Preclinical evaluation of 3D185, a novel potent inhibitor of FGFR1/2/3 and CSF-1R, in FGFR-dependent and macrophage-dominant cancer models” (Journal of Experimental & Clinical Cancer Research : CR, 2019).

How the values were obtained:
Test in all cases: Eurofins kinase panel
Type in all cases: biochemical
Conditions in all cases: read-out: Inhibition rate (%)
[1] = target: T1, IR(h), activated (Homo sapiens, UniProt P06213)
T1 construct: purchased Eurofins (KinaseProfiler)
T1 sequence (P06213 28-1382): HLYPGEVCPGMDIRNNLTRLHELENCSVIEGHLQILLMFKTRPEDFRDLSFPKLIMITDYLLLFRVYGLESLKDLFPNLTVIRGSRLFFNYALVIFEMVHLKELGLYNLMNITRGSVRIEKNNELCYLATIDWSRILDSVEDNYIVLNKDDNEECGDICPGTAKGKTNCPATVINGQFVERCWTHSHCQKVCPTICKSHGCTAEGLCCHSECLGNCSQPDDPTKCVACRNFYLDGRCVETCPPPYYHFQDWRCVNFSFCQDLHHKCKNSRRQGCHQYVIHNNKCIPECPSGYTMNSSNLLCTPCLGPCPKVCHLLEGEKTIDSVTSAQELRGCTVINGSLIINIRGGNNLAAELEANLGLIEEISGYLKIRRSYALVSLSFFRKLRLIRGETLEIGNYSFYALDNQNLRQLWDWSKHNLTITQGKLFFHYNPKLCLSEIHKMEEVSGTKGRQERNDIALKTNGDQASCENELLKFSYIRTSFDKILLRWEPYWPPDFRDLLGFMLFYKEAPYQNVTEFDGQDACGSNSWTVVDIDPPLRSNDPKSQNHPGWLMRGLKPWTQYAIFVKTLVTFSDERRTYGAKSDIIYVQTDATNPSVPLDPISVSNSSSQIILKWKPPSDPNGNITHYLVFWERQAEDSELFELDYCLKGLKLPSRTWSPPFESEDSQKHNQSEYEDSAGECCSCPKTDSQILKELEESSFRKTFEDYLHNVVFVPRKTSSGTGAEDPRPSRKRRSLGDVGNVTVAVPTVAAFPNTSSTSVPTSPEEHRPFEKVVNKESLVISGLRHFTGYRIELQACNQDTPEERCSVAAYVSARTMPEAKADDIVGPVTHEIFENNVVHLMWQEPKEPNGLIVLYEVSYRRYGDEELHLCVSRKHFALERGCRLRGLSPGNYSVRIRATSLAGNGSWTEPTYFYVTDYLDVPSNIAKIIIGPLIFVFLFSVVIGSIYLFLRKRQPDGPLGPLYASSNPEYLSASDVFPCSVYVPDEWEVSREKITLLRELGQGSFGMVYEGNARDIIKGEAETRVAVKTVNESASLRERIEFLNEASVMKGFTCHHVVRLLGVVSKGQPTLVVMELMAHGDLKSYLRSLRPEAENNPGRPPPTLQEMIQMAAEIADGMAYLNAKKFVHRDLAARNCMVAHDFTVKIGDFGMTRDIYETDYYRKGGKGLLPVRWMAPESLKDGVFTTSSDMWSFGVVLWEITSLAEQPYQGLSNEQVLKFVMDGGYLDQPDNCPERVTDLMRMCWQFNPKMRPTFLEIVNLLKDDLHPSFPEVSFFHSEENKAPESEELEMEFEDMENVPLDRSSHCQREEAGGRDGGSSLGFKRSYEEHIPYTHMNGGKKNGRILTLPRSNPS

[2] = target: T2, NEK2(h) (Homo sapiens, UniProt P51955)
T2 construct: purchased Eurofins (KinaseProfiler)
T2 sequence (P51955 1-445): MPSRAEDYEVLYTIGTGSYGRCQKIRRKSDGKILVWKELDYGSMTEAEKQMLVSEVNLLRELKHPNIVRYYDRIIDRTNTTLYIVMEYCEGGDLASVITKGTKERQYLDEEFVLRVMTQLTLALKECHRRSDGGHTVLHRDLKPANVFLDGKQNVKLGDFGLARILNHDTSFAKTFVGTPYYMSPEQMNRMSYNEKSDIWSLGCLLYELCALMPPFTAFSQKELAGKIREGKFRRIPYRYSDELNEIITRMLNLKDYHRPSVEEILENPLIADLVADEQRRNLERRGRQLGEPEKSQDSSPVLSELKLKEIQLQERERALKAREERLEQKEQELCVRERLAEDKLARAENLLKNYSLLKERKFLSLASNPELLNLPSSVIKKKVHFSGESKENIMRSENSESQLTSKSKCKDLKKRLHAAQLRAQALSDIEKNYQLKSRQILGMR

[3] = target: T3, EGFR(T790M,L858R)(h) (Homo sapiens, UniProt P00533, L858R/T790M)
T3 construct: purchased Eurofins (KinaseProfiler)
T3 sequence (P00533 25-1210 T790M/L858R): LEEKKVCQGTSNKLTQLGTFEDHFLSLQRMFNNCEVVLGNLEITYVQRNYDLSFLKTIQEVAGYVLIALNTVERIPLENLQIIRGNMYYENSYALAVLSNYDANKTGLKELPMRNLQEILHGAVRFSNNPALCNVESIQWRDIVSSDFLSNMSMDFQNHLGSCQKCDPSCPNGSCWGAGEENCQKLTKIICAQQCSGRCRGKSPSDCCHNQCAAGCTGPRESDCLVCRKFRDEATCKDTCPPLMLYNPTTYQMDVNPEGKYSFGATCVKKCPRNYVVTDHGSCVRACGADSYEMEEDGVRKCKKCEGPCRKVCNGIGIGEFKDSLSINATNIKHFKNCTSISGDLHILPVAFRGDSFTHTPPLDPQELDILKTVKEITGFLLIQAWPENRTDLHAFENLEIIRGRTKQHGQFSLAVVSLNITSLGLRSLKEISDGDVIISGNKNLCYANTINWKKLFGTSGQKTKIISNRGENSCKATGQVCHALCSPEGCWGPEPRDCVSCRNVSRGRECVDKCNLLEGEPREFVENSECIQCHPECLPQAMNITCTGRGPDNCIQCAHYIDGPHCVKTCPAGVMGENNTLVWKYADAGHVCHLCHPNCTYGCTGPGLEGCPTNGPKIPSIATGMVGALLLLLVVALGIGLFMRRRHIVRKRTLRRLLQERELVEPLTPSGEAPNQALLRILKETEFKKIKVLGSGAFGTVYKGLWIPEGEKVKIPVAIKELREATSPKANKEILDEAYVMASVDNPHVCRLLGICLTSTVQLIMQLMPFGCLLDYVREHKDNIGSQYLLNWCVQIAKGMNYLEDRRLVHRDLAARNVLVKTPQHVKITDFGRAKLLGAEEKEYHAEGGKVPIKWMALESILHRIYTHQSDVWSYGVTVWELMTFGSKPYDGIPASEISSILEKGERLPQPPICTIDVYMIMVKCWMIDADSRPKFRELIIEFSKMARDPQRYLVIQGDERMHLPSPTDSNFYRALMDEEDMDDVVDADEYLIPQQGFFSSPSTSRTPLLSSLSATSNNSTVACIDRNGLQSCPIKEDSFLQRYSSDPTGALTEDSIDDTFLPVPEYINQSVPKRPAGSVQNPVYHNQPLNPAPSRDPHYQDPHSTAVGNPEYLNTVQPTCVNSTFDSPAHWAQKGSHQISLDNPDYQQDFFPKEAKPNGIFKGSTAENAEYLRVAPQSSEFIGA

[4] = target: T4, SGK(h) (Homo sapiens, UniProt O00141)
T4 construct: purchased Eurofins (KinaseProfiler)
T4 sequence (O00141 1-431): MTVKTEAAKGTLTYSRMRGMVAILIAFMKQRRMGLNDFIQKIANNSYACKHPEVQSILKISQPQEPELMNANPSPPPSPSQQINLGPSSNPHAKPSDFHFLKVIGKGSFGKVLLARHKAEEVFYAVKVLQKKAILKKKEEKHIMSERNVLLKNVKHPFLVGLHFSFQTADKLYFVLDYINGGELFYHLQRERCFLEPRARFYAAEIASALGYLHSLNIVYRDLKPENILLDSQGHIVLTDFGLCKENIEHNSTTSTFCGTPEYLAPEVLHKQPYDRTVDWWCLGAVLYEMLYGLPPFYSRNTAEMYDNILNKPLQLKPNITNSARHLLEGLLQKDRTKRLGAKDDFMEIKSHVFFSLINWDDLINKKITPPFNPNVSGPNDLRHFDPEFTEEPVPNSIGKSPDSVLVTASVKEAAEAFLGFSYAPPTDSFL

[5] = target: T5, Fer(h) (Homo sapiens, UniProt P16591)
T5 construct: purchased Eurofins (KinaseProfiler)

[6] = target: T6, Haspin(h) (Homo sapiens, UniProt Q8TF76)
T6 construct: purchased Eurofins (KinaseProfiler)
T6 sequence (Q8TF76 1-798): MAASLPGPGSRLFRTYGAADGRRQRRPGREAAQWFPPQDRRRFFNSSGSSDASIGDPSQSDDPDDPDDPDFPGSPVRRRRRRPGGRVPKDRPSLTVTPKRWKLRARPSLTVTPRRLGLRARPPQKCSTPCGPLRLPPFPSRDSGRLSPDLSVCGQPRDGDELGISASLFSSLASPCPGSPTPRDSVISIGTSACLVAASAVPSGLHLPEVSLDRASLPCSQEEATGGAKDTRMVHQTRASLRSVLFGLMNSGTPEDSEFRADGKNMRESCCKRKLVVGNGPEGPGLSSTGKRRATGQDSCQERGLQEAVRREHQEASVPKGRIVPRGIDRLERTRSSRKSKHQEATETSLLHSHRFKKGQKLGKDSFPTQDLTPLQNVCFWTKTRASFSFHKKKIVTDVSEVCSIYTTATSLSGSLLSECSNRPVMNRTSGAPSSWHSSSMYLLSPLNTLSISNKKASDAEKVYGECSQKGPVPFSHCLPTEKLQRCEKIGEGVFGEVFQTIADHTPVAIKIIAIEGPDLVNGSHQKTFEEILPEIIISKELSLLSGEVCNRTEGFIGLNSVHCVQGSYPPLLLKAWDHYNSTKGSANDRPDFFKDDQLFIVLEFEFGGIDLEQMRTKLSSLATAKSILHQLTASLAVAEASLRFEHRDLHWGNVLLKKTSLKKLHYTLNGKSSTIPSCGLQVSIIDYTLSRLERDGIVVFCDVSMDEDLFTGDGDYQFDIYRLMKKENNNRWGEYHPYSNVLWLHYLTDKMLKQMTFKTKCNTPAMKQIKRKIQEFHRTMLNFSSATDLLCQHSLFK

[7] = target: T7, PI3 Kinase (p110α(E542K)/p85α)(h) (Homo sapiens, UniProt P42336, E542K)
T7 construct: purchased Eurofins (KinaseProfiler)
T7 sequence (P42336 whole entry E542K): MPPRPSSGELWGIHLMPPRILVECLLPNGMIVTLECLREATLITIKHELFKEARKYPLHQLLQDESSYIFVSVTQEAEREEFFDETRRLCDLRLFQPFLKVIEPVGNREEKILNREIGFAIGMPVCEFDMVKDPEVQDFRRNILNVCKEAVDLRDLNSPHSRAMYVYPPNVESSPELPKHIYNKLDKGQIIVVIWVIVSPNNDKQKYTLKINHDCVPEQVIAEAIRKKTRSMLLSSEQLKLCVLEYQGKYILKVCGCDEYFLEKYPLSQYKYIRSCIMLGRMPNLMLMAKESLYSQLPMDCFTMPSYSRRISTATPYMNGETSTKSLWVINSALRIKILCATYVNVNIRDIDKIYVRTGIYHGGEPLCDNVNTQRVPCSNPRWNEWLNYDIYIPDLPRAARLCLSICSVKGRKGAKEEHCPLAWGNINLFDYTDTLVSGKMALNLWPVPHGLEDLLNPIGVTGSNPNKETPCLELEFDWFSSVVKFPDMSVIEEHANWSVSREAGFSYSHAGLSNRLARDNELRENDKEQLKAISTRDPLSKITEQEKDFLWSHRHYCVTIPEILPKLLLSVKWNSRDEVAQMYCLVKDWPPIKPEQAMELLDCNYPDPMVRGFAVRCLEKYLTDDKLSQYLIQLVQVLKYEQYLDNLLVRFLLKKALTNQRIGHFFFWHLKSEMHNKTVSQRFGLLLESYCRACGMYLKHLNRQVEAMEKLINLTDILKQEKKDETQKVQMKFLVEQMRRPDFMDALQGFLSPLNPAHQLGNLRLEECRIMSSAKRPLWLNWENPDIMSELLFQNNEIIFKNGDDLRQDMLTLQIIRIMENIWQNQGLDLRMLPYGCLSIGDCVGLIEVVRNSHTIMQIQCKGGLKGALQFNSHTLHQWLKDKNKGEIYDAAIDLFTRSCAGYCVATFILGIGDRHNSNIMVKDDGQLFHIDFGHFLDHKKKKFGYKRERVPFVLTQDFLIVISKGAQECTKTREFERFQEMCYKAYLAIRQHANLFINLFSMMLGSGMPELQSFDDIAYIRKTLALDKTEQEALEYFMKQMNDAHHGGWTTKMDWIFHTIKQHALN
T7 sequence (P27986 whole entry partner): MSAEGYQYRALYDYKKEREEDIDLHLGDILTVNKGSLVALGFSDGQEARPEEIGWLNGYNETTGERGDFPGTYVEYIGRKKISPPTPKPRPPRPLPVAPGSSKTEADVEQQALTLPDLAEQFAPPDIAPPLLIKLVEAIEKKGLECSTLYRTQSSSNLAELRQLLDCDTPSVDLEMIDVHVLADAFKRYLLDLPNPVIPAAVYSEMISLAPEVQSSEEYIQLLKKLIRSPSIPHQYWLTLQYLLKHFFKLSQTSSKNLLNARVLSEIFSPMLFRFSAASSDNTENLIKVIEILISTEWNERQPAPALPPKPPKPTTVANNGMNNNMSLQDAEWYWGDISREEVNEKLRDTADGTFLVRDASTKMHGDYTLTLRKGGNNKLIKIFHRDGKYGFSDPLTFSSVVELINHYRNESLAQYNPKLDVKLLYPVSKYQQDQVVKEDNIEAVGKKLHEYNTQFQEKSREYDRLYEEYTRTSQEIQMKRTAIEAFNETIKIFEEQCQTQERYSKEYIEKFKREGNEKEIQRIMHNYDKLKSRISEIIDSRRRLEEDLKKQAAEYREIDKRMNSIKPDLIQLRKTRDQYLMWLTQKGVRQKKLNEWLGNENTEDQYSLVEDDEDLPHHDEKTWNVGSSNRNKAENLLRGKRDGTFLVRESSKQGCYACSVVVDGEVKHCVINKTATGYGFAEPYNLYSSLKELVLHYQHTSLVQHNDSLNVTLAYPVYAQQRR

[8] = target: T8, DNA-PK(h) (Homo sapiens, UniProt P78527)
T8 construct: purchased Eurofins (KinaseProfiler)

[9] = target: T9, CK1γ1(h) (Homo sapiens, UniProt Q9HCP0)
T9 construct: purchased Eurofins (KinaseProfiler)
T9 sequence (Q9HCP0 whole entry): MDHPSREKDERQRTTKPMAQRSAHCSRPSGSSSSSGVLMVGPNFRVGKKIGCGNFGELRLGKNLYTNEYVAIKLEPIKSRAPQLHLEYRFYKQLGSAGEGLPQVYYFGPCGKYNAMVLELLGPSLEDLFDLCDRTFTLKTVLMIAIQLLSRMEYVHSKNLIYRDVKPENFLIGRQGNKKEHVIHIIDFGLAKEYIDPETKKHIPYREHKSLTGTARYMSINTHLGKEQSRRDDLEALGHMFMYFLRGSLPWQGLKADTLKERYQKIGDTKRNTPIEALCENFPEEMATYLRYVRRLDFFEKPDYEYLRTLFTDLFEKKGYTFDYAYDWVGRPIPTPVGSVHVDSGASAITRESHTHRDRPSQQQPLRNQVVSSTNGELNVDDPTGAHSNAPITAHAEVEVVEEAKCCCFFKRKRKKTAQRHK

[10] = target: T10, MRCKβ(h) (Homo sapiens, UniProt Q9Y5S2)
T10 construct: purchased Eurofins (KinaseProfiler)

Compound `COc1cc(OC)c(Cl)c(-c2ccc3c(NC(=O)c4ccc(N5CCNC(C)(C)C5)cc4)n[nH]c3n2)c1Cl` [3D185] has an inhibition at 0.01 µM ([1]; 10 nM) of 9%, an inhibition at 0.1 µM ([1]; 100 nM) of 42% and an inhibition at 1 µM ([1]; 1000 nM) of 85%. For the same compound, the inhibition at 0.01 µM ([2]; 10 nM) was 15%, the inhibition at 0.1 µM ([2]; 100 nM) was 67% and the inhibition at 1 µM ([2]; 1000 nM) was 94%. It also gave an inhibition at 0.01 µM ([3]; 10 nM) of 6%, an inhibition at 0.1 µM ([3]; 100 nM) of 38% and an inhibition at 1 µM ([3]; 1000 nM) of 79%. For the same compound, the inhibition at 0.01 µM ([4]; 10 nM) was -4%, the inhibition at 0.1 µM ([4]; 100 nM) was -13% and the inhibition at 1 µM ([4]; 1000 nM) was -7%. It also gave an inhibition at 0.01 µM ([5]; 10 nM) of -11%, an inhibition at 0.1 µM ([5]; 100 nM) of 0% and an inhibition at 1 µM ([5]; 1000 nM) of 42%. For the same compound, the inhibition at 0.01 µM ([6]; 10 nM) was -15%, the inhibition at 0.1 µM ([6]; 100 nM) was -6% and the inhibition at 1 µM ([6]; 1000 nM) was 4%. It also gave an inhibition at 0.01 µM ([7]; 10 nM) of -2%, an inhibition at 0.1 µM ([7]; 100 nM) of 2% and an inhibition at 1 µM ([7]; 1000 nM) of 2%. For the same compound, the inhibition at 0.01 µM ([8]; 10 nM) was 5%, the inhibition at 0.1 µM ([8]; 100 nM) was 2% and the inhibition at 1 µM ([8]; 1000 nM) was 0%. The inhibition at 0.01 µM ([9]; 10 nM) was 9%, the inhibition at 0.1 µM ([9]; 100 nM) was -4% and the inhibition at 1 µM ([9]; 1000 nM) was 2%. The inhibition at 0.01 µM ([10]; 10 nM) was 18%, the inhibition at 0.1 µM ([10]; 100 nM) was 8% and the inhibition at 1 µM ([10]; 1000 nM) was 21%.
